This is an account of results in US7595320B2, “Hydrazinocarbonyl-thieno[2,3-C]pyrazoles, process for preparing them, compositions containing them and use thereof” (Aventis Pharma S.A., priority 2005, dated 2009).

Holding throughout (type): biochemical
One assay concerns the target T1, Aurora1 (Homo sapiens, UniProt Q96GD4).
T1 construct: His tag (N); made in house
As to the kind of experiment: Aurora1 enzymatic test, NuMA phosphorylation with [33P]ATP, Flashplate. The settings on record: Aurora-B/INCENP-C3 recombinant complex, 1 μM ATP. The procedure: (§1) The inhibitory effect of compounds with respect to the kinases Aurora1 and Aurora2 is determined by means of an enzymatic test using radioactivity detection.
(§2) The kinase activity of Aurora1 and Aurora2 is evaluated via the phosphorylation of the substrate Numa-histidine in the presence of radiolabelled ATP ([^33P]ATP) using 96-well Flashplate plates in which the nickel chelate is bound to the surface of the microplate. The amount of ^33P phosphate incorporated into the NuMA substrate is proportional to the activity of the enzyme Aurora1 or Aurora2.
Aurora1: Aurora-B/INCENP-C3 recombinant complex, purified to about 50%, the N-terminal end of Aurora-B of which has been labeled with histidine.
(§3) NuMA (nuclear protein that combines with the mitotic apparatus): 424-amino acid fragment, expressed in E. coli, the N-terminal end of which has been labeled with histidine, and used as substrate for the two Aurora enzymes.
(§4) The microplates used are 96-well Flash-Plate plates, nickel chelate (Perkin-Elmer, model SMP107).
(§5) The products to be evaluated are incubated in a reaction volume of 100 μL per well, in the presence of 10 nM of Aurora1 or Aurora2, 500 nM of NuMA substrate in a buffer composed of 50 mM Tris/HCl (pH 7.5), 50 mM NaCl, 5 mM MgCl2 (Aurora-B) or 10 mM MgCl2 (Aurora-A) and 1 mM DTT, at 37° C.
(§6) 80 μL of enzyme/substrate incubation buffer are distributed in each well, followed by 10 μL of product to be evaluated, at variable concentrations. The reaction is initiated by adding 1 μM final of ATP containing 0.2 μCi of [^33P]ATP (10 μL). After incubating for 30 minutes, the reaction is quenched by simple removal of the reaction buffer and each well is washed twice with 300 μl of Tris/HCl buffer. The radioactivity is then measured in each well using a Packard, Top-Count model scintillation machine.
(§7) The control enzymatic activity of Aurora is expressed by the number of counts per minute obtained over 30 minutes after subtracting the background noise (reaction mixture containing no enzyme). The evaluation of the various test products is expressed as a percentage of inhibition of the Aurora activity relative to the control.

The target of a further assay is T2, Aurora2 (Homo sapiens, UniProt O14965).
T2 construct: Aurora2: whole recombinant protein comprising an N-terminal histidine tail; His tag (N); made in house; host or cells: E. coli
T2 sequence (O14965 1-403): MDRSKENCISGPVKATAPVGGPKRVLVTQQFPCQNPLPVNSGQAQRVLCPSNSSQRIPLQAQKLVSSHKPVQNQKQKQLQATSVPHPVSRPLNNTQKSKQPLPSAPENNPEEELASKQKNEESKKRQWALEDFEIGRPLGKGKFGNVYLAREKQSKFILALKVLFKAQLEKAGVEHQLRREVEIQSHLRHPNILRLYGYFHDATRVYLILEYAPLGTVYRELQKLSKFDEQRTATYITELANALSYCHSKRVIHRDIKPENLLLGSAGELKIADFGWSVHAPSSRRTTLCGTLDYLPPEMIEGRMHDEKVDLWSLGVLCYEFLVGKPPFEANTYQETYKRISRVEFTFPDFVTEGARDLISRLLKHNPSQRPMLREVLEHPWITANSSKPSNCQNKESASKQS
As to the kind of experiment: Aurora2 enzymatic test, NuMA phosphorylation with [33P]ATP, Flashplate. As to conditions: whole recombinant protein, 1 μM ATP. The procedure:
as §1, §2
Aurora2: whole recombinant protein comprising an N-terminal histidine tail, was expressed in E. coli and purified to more than 82%.
as §3, §4, §5, §6, §7

A further assay has as its target T3, CDK2/cycline E (Homo sapiens, UniProt P24941).
T3 construct: made in house; host or cells: Sf21 insect cells (baculovirus coinfection)
The assay can be described thus: CDK2/cyclineE Flashplate test in 96-well format. The settings on record: CDK2/cycline E complex, 1 μM ATP. The procedure:
Two recombinant baculoviruses bearing the human sequences coding, respectively, for CDK2 and cyclineE (the latter bearing a C-terminal hexahistidine tag) are used to coinfect Sf21 insect cells. Two to three days after the start of coinfection, the cells are harvested by centrifugation and then stored at −40° C. until the time of use.
A format in streptavidin-coated 96-well plates is used to test the activity of the compounds on the kinase activity of CDK2/cycline E.
To perform this test, the biotinylated peptide substrate, a fragment of the protein pRb (biotinyl-[…]-OH), is dissolved at a concentration of 1 mM in kinase buffer (HEPES/NaOH 50 mM, NaCl 1 mM, MgCl2 5 mM, pH 7.5) in order to constitute a stock solution stored at −20° C. in the form of 110 μL aliquots. On the day of the experiment, an aliquot of this solution is thawed and diluted in kinase buffer containing 1 mM of dithiothreitol, added to the buffer extemporaneously, in order to obtain a concentration of 14.3 μM. 70 μL of this solution are added to each well of the Flashplate in order to obtain a final substrate concentration of 10 μM during the enzymatic reaction performed in a final volume of the reaction medium of 100 μL (cf. below).
Intermediate dilutions of inhibitors (products of the invention) at various concentrations are prepared in DMSO from stock solutions at 10 mM in separate tubes. Dilutions at 1000 μM, 333.3 μM, 111.1 μM, 37.03 μM, 12.35 μM, 4.11 μM and 1.37 μM are thus prepared. One μL of each of these solutions (or 1 μL of DMSO for the controls) is transferred into the wells of the test plate.
19 μl of a solution of a mixture of adenosine triphosphate (ATP) and of ATPγ^33P in kinase buffer at a total concentration of 5.26 μM of ATP and 52.6 μCi/ml of ^33P are then added to each well. The enzymatic reaction is initiated by adding 10 μL per well of a 200 nM solution of CDK2/cycline E in kinase buffer containing 1 mM of dithiothreitol (or 10 μL of kinase buffer containing 1 mM of dithiothreitol for the reaction blanks).
After addition of each of the reagents, the final volume of each well is 100 μL, the final concentration of substrate is 10 μM, the final inhibitor concentrations are 10 μM, 3.33 μM, 1.11 μM, 0.37 μM, 0.123 μM, 0.041 μM and 0.014 μM (according to the concentration of the intermediate dilution), the final ATP concentration is 1 μM, the final amount of ^33P is 1 μCi/well, and the final concentration of CDK2/cycline E complex is 20 nM.
After addition of all of the reagents, the test plate is incubated at 30° C. with orbital shaking at 650 rpm.
When the incubation is complete, the plate is washed three times with 300 μL per well of PBS (phosphate-buffered saline, pH=7.4, without calcium or magnesium, reference 10010-015, Gibco BRL). The incorporation of ^33P to the peptide is quantified by scintillation counting with a Packard Topcount.NXT machine.

The target in another assay is T4, Tie2 (Homo sapiens, UniProt Q02763).
T4 construct: amino acids of the intracellular domain 776-1124; made in house; host or cells: baculovirus expression (pFastBacGT vector)
T4 sequence (Q02763 776-1124): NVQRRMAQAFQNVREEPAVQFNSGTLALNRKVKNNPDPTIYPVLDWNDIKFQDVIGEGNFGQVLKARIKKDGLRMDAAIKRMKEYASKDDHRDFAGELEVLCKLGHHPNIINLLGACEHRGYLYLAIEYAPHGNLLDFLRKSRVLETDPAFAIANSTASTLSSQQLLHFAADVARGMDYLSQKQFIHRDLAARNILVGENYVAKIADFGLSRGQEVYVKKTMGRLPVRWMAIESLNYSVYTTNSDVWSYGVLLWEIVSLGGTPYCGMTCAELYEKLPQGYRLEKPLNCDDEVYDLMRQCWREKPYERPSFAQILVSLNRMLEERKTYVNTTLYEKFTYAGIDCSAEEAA
As to the kind of experiment: Tie2 kinase test, phosphorylation of PLC with GST-Tie2. The settings on record: GST-Tie2 intracellular domain 776-1124. The procedure:
The coding sequence of human Tie2 corresponding to the amino acids of the intracellular domain 776-1124 was generated by PCR using the cDNA isolated from a human placenta as a model. This sequence was introduced into a pFastBacGT baculovirus expression vector in the form of a GST fusion protein.
The inhibitory effect of the molecules is determined in a test of phosphorylation of PLC with Tie2 in the presence of GST-Tie2 purified to about 80% homogeneity. The substrate is composed of the SH2-SH3 fragments of PLC expressed in the form of a GST fusion protein.
The kinase activity of Tie2 is measured in a MOPS 20 mM pH 7.2 buffer, containing 10 mM MgCl2, 10 mM MnCl2, 1 mM DTT, 10 mM of glycerophosphate. In a 96-well FlashPlate plate maintained on ice, a reaction mixture is deposited, composed of 70 μL of kinase buffer containing 100 ng of enzyme GST-Tie2 per well. Next, 10 μL of the test molecule diluted in DMSO to a maximum concentration of 10% are added. For a given concentration, each measurement is performed four times. The reaction is initiated by adding 20 μL of solution containing 2 μg of GST-PLC, 2 μm of cold ATP and 1 μCi of ^33P[ATP]. After incubation for one hour at 37° C., the reaction is stopped by adding 1 volume (100 μl) of 200 mM EDTA. After removal of the incubation buffer, the wells are washed three times with 300 μL of PBS. The radioactivity is measured on a MicroBeta1450 Wallac.
The inhibition of the Tie2 activity is calculated and expressed as a percentage of inhibition relative to the control activity determined in the absence of compound.

T1 sequence (Q96GD4 whole entry, species assumed): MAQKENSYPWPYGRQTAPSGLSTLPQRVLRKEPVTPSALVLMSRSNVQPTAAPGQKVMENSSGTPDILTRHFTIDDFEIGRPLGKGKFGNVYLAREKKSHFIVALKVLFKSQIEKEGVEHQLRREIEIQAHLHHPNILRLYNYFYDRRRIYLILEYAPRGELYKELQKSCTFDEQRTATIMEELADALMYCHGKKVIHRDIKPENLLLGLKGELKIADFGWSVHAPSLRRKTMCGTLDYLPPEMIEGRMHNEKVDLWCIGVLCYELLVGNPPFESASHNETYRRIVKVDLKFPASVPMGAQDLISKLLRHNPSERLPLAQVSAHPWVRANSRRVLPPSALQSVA
T1 sequence (Q9NQS7 835-903 partner limits assumed, species assumed): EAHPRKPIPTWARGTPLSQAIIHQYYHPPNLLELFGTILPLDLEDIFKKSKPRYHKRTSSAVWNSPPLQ

As to `CN1CCN(c2ccc(C(=O)Nc3n[nH]c4sc(C(=O)N/N=C\c5ccccc5)cc34)cc2)CC1` [Example 45, N-[5-(benzylidenehydrazinocarbonyl)-1H-thieno-[2,3-c]pyrazol-3-yl]-4-(4-methylpiperazin-1-yl)benzamide], the IC50 on Aurora1 turned out to be 33 nM; on Aurora2 it was 21 nM; against CDK2/cycline E it was 146 nM; at Tie2, 29 nM.
Taken in the same sequence, the figures for `COc1ccc(C(=O)Nc2n[nH]c3sc(C(=O)NNc4ccccc4)cc23)cc1` [Example 1] were 8 nM, 8 nM, 177 nM and 117 nM.
The matching figures for `COc1ccc(C(=O)Nc2n[nH]c3sc(C(=O)NNc4ccccc4C)cc23)cc1` [Example 7, 4-methoxy-N-[5-(N′-o-tolylhydrazinocarbonyl)-1H-thieno[2,3-c]pyrazol-3-yl]benzamide]: 16 nM, 17 nM, 428 nM and 186 nM.
The matching figures for `CCN(NC(=O)c1cc2c(NC(=O)c3ccc(N4CCN(C)CC4)cc3)n[nH]c2s1)c1cccc(Br)c1` [Example 43, N-{5-[N′-(3-bromophenyl)-N′-ethylhydrazinocarbonyl]-1H-thieno[2,3-c]pyrazol-3-yl}-4-(4-methylpiperazin-1-yl)benzamide]: 5 nM, 1 nM, 32 nM and 8 nM.
In the case of `COc1ccc(C(=O)Nc2n[nH]c3sc(C(=O)NNCc4ccccc4)cc23)cc1` [Example 26, N-[5-(N′-benzylhydrazinocarbonyl)-1H-thieno[2,3-c]pyrazol-3-yl]-4-methoxybenzamide], the IC50 on Aurora1 worked out at 42 nM; at Aurora2 it was 23 nM; against CDK2/cycline E it was 75 nM; against Tie2 it was 175 nM.
Take `CN1CCN(c2ccc(C(=O)Nc3n[nH]c4sc(C(=O)NNCc5ccccc5)cc34)cc2)CC1` [Example 32, N-[5-(N′-benzylhydrazinocarbonyl)-1H-thieno[2,3-c]pyrazol-3-yl]-4-(4-methylpiperazin-1-yl)benzamide]: the IC50 on Aurora1 came out at 25 nM; at Aurora2, 4 nM; on CDK2/cycline E, 109 nM; on Tie2, 38 nM.
Regarding `CN1CCN(c2ccc(C(=O)Nc3n[nH]c4sc(C(=O)NN(C)Cc5ccccc5)cc34)cc2)CC1` [Example 30, N-[5-(N′-benzyl-N′-methylhydrazinocarbonyl)-1H-thieno[2,3-c]pyrazol-3-yl]-4-(4-methylpiperazin-1-yl)benzamide], the IC50 turned out to be 12 nM on Aurora1, 6 nM at Aurora2, 221 nM on CDK2/cycline E and 128 nM against Tie2.
The matching figures for `CCN(CC)CCNCc1ccc(C(=O)Nc2n[nH]c3sc(C(=O)NN(C)c4ccccc4)cc23)cc1` [Example 23a, 4-[(2-diethylaminoethylamino)methyl]-N-[5-(N′-methyl-N′-phenylhydrazinocarbonyl)-1H-thieno[2,3-c]pyrazol-3-yl]-benzamide]: 199 nM, 65 nM, 143 nM and 431 nM.
The matching figures for `CN(NC(=O)c1cc2c(NC(=O)c3ccc(CN4CCCCC4)cc3)n[nH]c2s1)c1ccccc1` [Example 17a, N-[5-(N′-methyl-N′-phenylhydrazinocarbonyl)-1H-thieno[2,3-c]pyrazol-3-yl]-4-piperidin-1-ylmethylbenzamide]: 59 nM, 7 nM, 175 nM and 482 nM.
`CCN(CC)Cc1ccc(C(=O)Nc2n[nH]c3sc(C(=O)NN(C)c4ccc(Cl)cc4)cc23)cc1` [Example 15b, N-{5-[N′-(4-chlorophenyl)-N′-methylhydrazinocarbonyl]-1H-thieno[2,3-c]pyrazol-3-yl}-4-diethylaminomethylbenzamide]: the IC50 was determined as 329 nM on Aurora1, 37 nM on Aurora2, 82 nM against CDK2/cycline E and 393 nM at Tie2.
Taken in the same sequence, the figures for `COc1ccc(C(=O)Nc2n[nH]c3sc(C(=O)NN(C)c4ccccc4)cc23)cc1` [Example 2] were 9 nM, 9 nM, 97 nM and 92 nM.
